{
  "source": "the supplement of paper PMC11414989",
  "conditions_in_all_cases": "exposure window: 6 hpf to 120 hpf, static, assay age: 120 hpf (5 dpf)",
  "key": {"[1]": {"system": "Danio rerio larvae (Tropical 5D)", "assay": "mean distance moved of exposed larvae, dark phase (µm per frame (1/25 s)); higher = more movement", "description": "(§1)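 Larval photomotor response in Tropical 5D wild-type zebrafish. Larvae were statically exposed to each chemical from 6 hpf to 5 dpf in 96-well plates; morphologically abnormal larvae were excluded. At 120 hpf, larvae were tracked with Ethovision XT (25 frames/s) over the 2nd cycle of 3 min light and 3 min dark. Values are the mean movement metric of exposed larvae per phase; same-plate control means (plate-dependent baseline) are given as conditions.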"}, "[2]": {"system": "Danio rerio larvae (Tropical 5D)", "assay": "mean distance moved of exposed larvae, light phase (µm per frame (1/25 s)); higher = more movement", "description": "as §1"}, "[3]": {"system": "Danio rerio larvae (Tropical 5D)", "assay": "mean angular velocity of exposed larvae, dark phase (angular velocity (unit not stated)); higher = more movement", "description": "as §1"}, "[4]": {"system": "Danio rerio larvae (Tropical 5D)", "assay": "mean angular velocity of exposed larvae, light phase (angular velocity (unit not stated)); higher = more movement", "description": "as §1"}},
  "data": [
    {"compound": "C[Si](C)(C)C(F)(F)C(F)(F)C(F)(F)F", "note": "[(Heptafluoropropyl)trimethylsilane]", "values": [
      {"measurement": "mean distance moved of exposed larvae", "setting": "[1]; 0.015 µM", "value": 13.3},
      {"measurement": "mean distance moved of exposed larvae", "setting": "[1]; 0.046 µM", "value": 19.7},
      {"measurement": "mean distance moved of exposed larvae", "setting": "[1]; 0.14 µM", "value": 19.1},
      {"measurement": "mean distance moved of exposed larvae", "setting": "[1]; 0.41 µM", "value": 16.9},
      {"measurement": "mean distance moved of exposed larvae", "setting": "[1]; 1.23 µM", "value": 22.6},
      {"measurement": "mean distance moved of exposed larvae", "setting": "[1]; 3.7 µM", "value": 12.9},
      {"measurement": "mean distance moved of exposed larvae", "setting": "[1]; 11.1 µM", "value": 18.6},
      {"measurement": "mean distance moved of exposed larvae", "setting": "[1]; 33.3 µM", "value": 15.3},
      {"measurement": "mean distance moved of exposed larvae", "setting": "[1]; 66.5 µM", "value": 25.7},
      {"measurement": "mean distance moved of exposed larvae", "setting": "[1]; 100 µM", "value": 24.3},
      {"measurement": "mean distance moved of exposed larvae", "setting": "[2]; 0.015 µM", "value": 1.23},
      {"measurement": "mean distance moved of exposed larvae", "setting": "[2]; 0.046 µM", "value": 1.25},
      {"measurement": "mean distance moved of exposed larvae", "setting": "[2]; 0.14 µM", "value": 1.98},
      {"measurement": "mean distance moved of exposed larvae", "setting": "[2]; 0.41 µM", "value": 1.51},
      {"measurement": "mean distance moved of exposed larvae", "setting": "[2]; 1.23 µM", "value": 1.46},
      {"measurement": "mean distance moved of exposed larvae", "setting": "[2]; 3.7 µM", "value": 0.916},
      {"measurement": "mean distance moved of exposed larvae", "setting": "[2]; 11.1 µM", "value": 2.09},
      {"measurement": "mean distance moved of exposed larvae", "setting": "[2]; 33.3 µM", "value": 1.5},
      {"measurement": "mean distance moved of exposed larvae", "setting": "[2]; 66.5 µM", "value": 1.57},
      {"measurement": "mean distance moved of exposed larvae", "setting": "[2]; 100 µM", "value": 2.09},
      {"measurement": "mean angular velocity of exposed larvae", "setting": "[3]; 0.015 µM", "value": 0.571},
      {"measurement": "mean angular velocity of exposed larvae", "setting": "[3]; 0.046 µM", "value": 0.779},
      {"measurement": "mean angular velocity of exposed larvae", "setting": "[3]; 0.14 µM", "value": 0.81},
      {"measurement": "mean angular velocity of exposed larvae", "setting": "[3]; 0.41 µM", "value": 0.637},
      {"measurement": "mean angular velocity of exposed larvae", "setting": "[3]; 1.23 µM", "value": 0.884},
      {"measurement": "mean angular velocity of exposed larvae", "setting": "[3]; 3.7 µM", "value": 0.521},
      {"measurement": "mean angular velocity of exposed larvae", "setting": "[3]; 11.1 µM", "value": 0.685},
      {"measurement": "mean angular velocity of exposed larvae", "setting": "[3]; 33.3 µM", "value": 0.594},
      {"measurement": "mean angular velocity of exposed larvae", "setting": "[3]; 66.5 µM", "value": 0.949},
      {"measurement": "mean angular velocity of exposed larvae", "setting": "[3]; 100 µM", "value": 1.01},
      {"measurement": "mean angular velocity of exposed larvae", "setting": "[4]; 0.015 µM", "value": 0.0325},
      {"measurement": "mean angular velocity of exposed larvae", "setting": "[4]; 0.046 µM", "value": 0.0534},
      {"measurement": "mean angular velocity of exposed larvae", "setting": "[4]; 0.14 µM", "value": 0.0675},
      {"measurement": "mean angular velocity of exposed larvae", "setting": "[4]; 0.41 µM", "value": 0.0607},
      {"measurement": "mean angular velocity of exposed larvae", "setting": "[4]; 1.23 µM", "value": 0.048},
      {"measurement": "mean angular velocity of exposed larvae", "setting": "[4]; 3.7 µM", "value": 0.0422},
      {"measurement": "mean angular velocity of exposed larvae", "setting": "[4]; 11.1 µM", "value": 0.0925},
      {"measurement": "mean angular velocity of exposed larvae", "setting": "[4]; 33.3 µM", "value": 0.0521},
      {"measurement": "mean angular velocity of exposed larvae", "setting": "[4]; 66.5 µM", "value": 0.0503},
      {"measurement": "mean angular velocity of exposed larvae", "setting": "[4]; 100 µM", "value": 0.0731}
    ]},
    {"compound": "CC[C@H](C)[C@H]1O[C@]2(C=C[C@@H]1C)C[C@@H]1C[C@@H](C/C=C(\\C)[C@@H](O[C@H]3C[C@H](OC)[C@@H](O[C@H]4C[C@H](OC)[C@@H](O)[C@H](C)O4)[C@H](C)O3)[C@@H](C)/C=C/C=C3\\CO[C@@H]4[C@H](O)C(C)=C[C@@H](C(=O)O1)[C@]34O)O2.CO[C@H]1C[C@H](O[C@H]2[C@H](C)O[C@@H](O[C@@H]3/C(C)=C/C[C@@H]4C[C@@H](C[C@]5(C=C[C@H](C)[C@@H](C(C)C)O5)O4)OC(=O)[C@@H]4C=C(C)[C@@H](O)[C@H]5OC/C(=C\\C=C\\[C@@H]3C)[C@]54O)C[C@@H]2OC)O[C@@H](C)[C@@H]1O", "note": "[Abamectin]", "values": [
      {"measurement": "mean distance moved of exposed larvae", "setting": "[1]; 0.1 µM", "value": 11.5},
      {"measurement": "mean distance moved of exposed larvae", "setting": "[1]; 0.2 µM", "value": 14.8},
      {"measurement": "mean distance moved of exposed larvae", "setting": "[1]; 0.4 µM", "value": 7.04},
      {"measurement": "mean distance moved of exposed larvae", "setting": "[1]; 0.5 µM", "value": 3.9},
      {"measurement": "mean distance moved of exposed larvae", "setting": "[1]; 0.6 µM", "value": 2.89},
      {"measurement": "mean distance moved of exposed larvae", "setting": "[1]; 0.8 µM", "value": 3.08},
      {"measurement": "mean distance moved of exposed larvae", "setting": "[2]; 0.1 µM", "value": 2.76},
      {"measurement": "mean distance moved of exposed larvae", "setting": "[2]; 0.2 µM", "value": 5.62},
      {"measurement": "mean distance moved of exposed larvae", "setting": "[2]; 0.4 µM", "value": 2.25},
      {"measurement": "mean distance moved of exposed larvae", "setting": "[2]; 0.5 µM", "value": 2.39},
      {"measurement": "mean distance moved of exposed larvae", "setting": "[2]; 0.6 µM", "value": 1.04},
      {"measurement": "mean distance moved of exposed larvae", "setting": "[2]; 0.8 µM", "value": 0.0237},
      {"measurement": "mean angular velocity of exposed larvae", "setting": "[3]; 0.1 µM", "value": 0.434},
      {"measurement": "mean angular velocity of exposed larvae", "setting": "[3]; 0.2 µM", "value": 0.554},
      {"measurement": "mean angular velocity of exposed larvae", "setting": "[3]; 0.4 µM", "value": 0.283},
      {"measurement": "mean angular velocity of exposed larvae", "setting": "[3]; 0.5 µM", "value": 0.124},
      {"measurement": "mean angular velocity of exposed larvae", "setting": "[3]; 0.6 µM", "value": 0.0798},
      {"measurement": "mean angular velocity of exposed larvae", "setting": "[3]; 0.8 µM", "value": 0.0985},
      {"measurement": "mean angular velocity of exposed larvae", "setting": "[4]; 0.1 µM", "value": 0.111},
      {"measurement": "mean angular velocity of exposed larvae", "setting": "[4]; 0.2 µM", "value": 0.19},
      {"measurement": "mean angular velocity of exposed larvae", "setting": "[4]; 0.4 µM", "value": 0.173},
      {"measurement": "mean angular velocity of exposed larvae", "setting": "[4]; 0.5 µM", "value": 0.0668},
      {"measurement": "mean angular velocity of exposed larvae", "setting": "[4]; 0.6 µM", "value": 0.0447},
      {"measurement": "mean angular velocity of exposed larvae", "setting": "[4]; 0.8 µM", "value": 0.00094}
    ]},
    {"compound": "CN1C(=O)CN=C(c2ccccc2)c2cc(Cl)ccc21", "note": "[Diazepam]", "values": [
      {"measurement": "mean distance moved of exposed larvae", "setting": "[1]; 1 µM", "value": 22.5},
      {"measurement": "mean distance moved of exposed larvae", "setting": "[1]; 3 µM", "value": 22.7},
      {"measurement": "mean distance moved of exposed larvae", "setting": "[1]; 5 µM", "value": 21.5},
      {"measurement": "mean distance moved of exposed larvae", "setting": "[1]; 8 µM", "value": 17.3},
      {"measurement": "mean distance moved of exposed larvae", "setting": "[1]; 12 µM", "value": 17},
      {"measurement": "mean distance moved of exposed larvae", "setting": "[2]; 1 µM", "value": 10.9},
      {"measurement": "mean distance moved of exposed larvae", "setting": "[2]; 3 µM", "value": 7.88},
      {"measurement": "mean distance moved of exposed larvae", "setting": "[2]; 5 µM", "value": 7.53},
      {"measurement": "mean distance moved of exposed larvae", "setting": "[2]; 8 µM", "value": 10},
      {"measurement": "mean distance moved of exposed larvae", "setting": "[2]; 12 µM", "value": 11},
      {"measurement": "mean angular velocity of exposed larvae", "setting": "[3]; 1 µM", "value": 1.05},
      {"measurement": "mean angular velocity of exposed larvae", "setting": "[3]; 3 µM", "value": 1.06},
      {"measurement": "mean angular velocity of exposed larvae", "setting": "[3]; 5 µM", "value": 1.17},
      {"measurement": "mean angular velocity of exposed larvae", "setting": "[3]; 8 µM", "value": 0.786},
      {"measurement": "mean angular velocity of exposed larvae", "setting": "[3]; 12 µM", "value": 0.733},
      {"measurement": "mean angular velocity of exposed larvae", "setting": "[4]; 1 µM", "value": 0.379},
      {"measurement": "mean angular velocity of exposed larvae", "setting": "[4]; 3 µM", "value": 0.422},
      {"measurement": "mean angular velocity of exposed larvae", "setting": "[4]; 5 µM", "value": 0.41},
      {"measurement": "mean angular velocity of exposed larvae", "setting": "[4]; 8 µM", "value": 0.389},
      {"measurement": "mean angular velocity of exposed larvae", "setting": "[4]; 12 µM", "value": 0.456}
    ]}
  ]
}
